Literature values as cited in patent US20210330903A1, “Multiple Dose Nasal Spray of Naloxone” (Navinta III Inc, priority 2020, published 2021).

C=CCN1CC[C@]23c4c5ccc(O)c4O[C@H]2C(=O)CC[C@@]3(O)[C@H]1C5.Cl [Naloxone hydrochloride, 17-Allyl-4,5α-epoxy-3,14 dihydroxymorphinan-6-one hydrochloride]
solubility in alcohol (alcohol): slightly soluble
solubility in chloroform (chloroform): practically insoluble
solubility in dilute acids (dilute acids): soluble
solubility in ether (ether): practically insoluble
solubility in strong alkali (strong alkali): soluble
solubility in water (water): soluble
